Residues, ends and D or L forms follow the SMILES beside them.
What was measured:
TREM-1 [1] = molecular target: T1, TREM-1 (Mus musculus, UniProt Q9JKE2); assay: colocalization of labeled peptide with TREM-1 in the cell membrane (images); type: cell-based; conditions: GE31 delivered to macrophages by SLP, G-KV21 pre-incubated with HDL, J774 cells
T1 construct: BALB/c murine macrophage J774A.1 cells were grown at 37° C. in six-well tissue culture plates containing glass coverslips; endogenous in cells; host or cells: BALB/c murine macrophage cell line J774A.1 (ATCC)
T1 sequence (O54885 22-114 partner): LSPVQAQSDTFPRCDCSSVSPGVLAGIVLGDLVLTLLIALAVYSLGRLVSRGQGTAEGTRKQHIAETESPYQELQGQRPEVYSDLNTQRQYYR
T1 sequence (Q9JKE2 21-230): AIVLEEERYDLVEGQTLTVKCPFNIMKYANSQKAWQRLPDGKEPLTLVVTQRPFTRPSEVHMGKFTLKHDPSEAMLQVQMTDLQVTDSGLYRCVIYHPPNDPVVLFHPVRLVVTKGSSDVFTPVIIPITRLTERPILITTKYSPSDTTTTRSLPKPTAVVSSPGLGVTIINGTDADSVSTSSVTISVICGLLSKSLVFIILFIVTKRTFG

[2] = tested on: mice with oxygen-induced retinopathy (OIR); assay: oxygen-induced retinopathy (OIR) in mice; type: in vivo
Source text: The membrane was probed for TREM-1, reprobed for CSF1 and then for β-actin.

[3] = tested on: human pancreatic cancer PANC-1 xenograft; assay: PANC-1 xenograft mouse model, standalone and with GEM+ABX chemotherapy; type: in vivo
Procedure: Mice were implanted subcutaneously into the right flank with PANC-1 cells in equal parts of serum-free growth medium and Matrigel. Mice were monitored daily and tumor measurements were taken along the length and width using Vernier calipers twice weekly until sacrifice. Tumor volumes were calculated using a modified ellipsoidal formula: (Length×Width^2)/2. […] Body weight were measured. Mean tumor volumes were calculated. […] Survival was evaluated using Kaplan-Meier survival curves.

TREM-1 [4] = molecular target: T1, TREM-1; assay: Immunofluorescence colocalization with TREM-1 in the cell membrane; type: cell-based; conditions: J774A.1; 6 h; Dylight 488-labeled, pre-incubated with HDL
Procedure: BALB/c murine macrophage J774A.1 cells were obtained from ATCC (Manassas, Va.) and cultured according to manufacturer's instructions at 37° C. in 6-well tissue culture plates containing glass coverslips until reaching about 50% confluency. Then, cells were incubated for 6 h at 37° C. either with rho B-labeled GF9-SLP that contained Dylight labeled GF9 or TREM-1/TRIOPEP-sSLP that contained Dylight 488-labeled GE31. In colocalization experiments, TREM-1 staining was performed using an Alexa 647-labeled rat anti-mouse TREM-1 antibody (Bio-Rad, Hercules, Calif.) as described in Shen and Sigalov. J Cell Mol Med 2017, 21:2524-2534. Coverslips were mounted using Prolong Gold anti-fade DAPI (4′,6-diamidino-2-phenylindole) mounting medium and photographed using an Olympus BX60 fluorescence microscope. Confocal imaging was performed using a Leica TCS SP5 II laser scanning confocal microscope as described in Shen and Sigalov. J Cell Mol Med 2017, 21:2524-2534.
BALB/c murine macrophage J774A.1 cells were grown at 37° C. in six-well tissue culture plates containing glass coverslips. […] ProLong Gold Antifade DAPI (4′,6′-diamidino-2-phenylindole) mounting medium was used to mount coverslips, and the slides were photographed using an Olympus BX60 fluorescence microscope. […]

healthy C57BL/6 mice = assay: Mouse tolerability studies; type: in vivo; conditions: free form, i.p., healthy mice
Procedure: Naïve, female C57BL/6 mice at 8 to 10 weeks of age (18 to 21 g) from the Jackson Laboratory were used. […] Clinical observations and body weights were made twice daily.
Naïve, female C57BL/6 mice at 8 to 10 weeks of age (18 to 21 g) from the Jackson Laboratory were used. Animals were randomly grouped (5 mice per group) and i.p. injected with 400 mg/kg G-HV21, G-KV21 or G-TE21. Clinical observations and body weights were made twice daily.

[5] = Crossing of blood-retinal and blood-brain barrier (rho B-labeled); conditions: mouse, in vivo
Procedure: Litters of C57BL/6J (Jackson Laboratory, Bar Harbor, Me.) neonatal mice and nursing dams were exposed to a hyperoxia environment (75% oxygen) from postnatal day 7 (P7) to P12 and returned to normoxia until P17. The hyperoxia exposure causes degeneration of the immature retinal vessels. […] Beginning on P7, mice were treated until day P17 by daily i.p. injections of GF9, GF9-SLP, TREM-1/TRIOPEP-sSLP or vehicle (phosphate-buffered saline, pH 7.4; PBS). […] In another subset of experiments, rho B-labeled Gd-containing sSLP were used to confirm the ability of these targeted SLP to cross the BRB in other species (rats and rabbits). In another subset of experiments, neonatal mice and nursing dams were not subjected to a hyperoxia environment and reared in room air (RA). At P17, all mice were humanely sacrificed and their retinas were collected.
Litters of C57BL/6J (Jackson Laboratory, Bar Harbor, Me.) neonatal mice and nursing dams were exposed to a hyperoxia environment (75% oxygen) from postnatal day 7 (P7) to P12 and returned to normoxia until P17. The hyperoxia exposure causes degeneration of the immature retinal vessels. […] Beginning on P7, mice were treated until day P17 by daily i.p. injections of G-KV21, G-TE21 at indicated doses or vehicle (PBS, pH 7.4). In certain embodiments, neonatal mice and nursing dams were not subjected to a hyperoxia environment and reared in room air. […]

SMILES	colocalization with TREM-1 in the cell membrane (TREM-1 [1])	pathological retinal neovascularization (RNV) ([2]; 25 mg/kg GF9, 2.5 mg/kg GF9-sSLP, 4 mg/kg GA/E31-sSLP where stated)	retinal tissue expression of TREM-1 and CSF-1 (M-CSF) ([2]; P17, Western blot)	survival, combined with GEM+ABX chemotherapy [3]	tumor growth, combined with GEM+ABX chemotherapy ([3]; GEM+ABX days 1, 4, 8, 11, 15)	self-insertion into the cell membrane and colocalization with TREM-1 (TREM-1 [4])	dose at which non-toxic and well tolerated (healthy C57BL/6 mice)	passage of blood-retinal barrier (BRB) and blood-brain barrier (BBB) [5]
CC(C)C[C@H](NC(=O)[C@H](Cc1ccccc1)NC(=O)CN)C(=O)N[C@@H](CO)C(=O)N[C@@H](CCCCN)C(=O)N[C@@H](CO)C(=O)N[C@@H](CC(C)C)C(=O)N[C@H](C(=O)N[C@@H](Cc1ccccc1)C(=O)N[C@@H](Cc1c[nH]c2ccccc12)C(=O)N[C@@H](CCC(N)=O)C(=O)N[C@@H](CCC(=O)O)C(=O)N[C@@H](CCC(=O)O)C(=O)N[C@@H](CC[S+](C)[O-])C(=O)N[C@@H](CCC(=O)O)C(=O)N[C@@H](CC(C)C)C(=O)N[C@@H](Cc1ccc(O)cc1)C(=O)N[C@@H](CCCNC(=N)N)C(=O)N[C@@H](CCC(N)=O)C(=O)N[C@@H](CCCCN)C(=O)N[C@H](C(=O)O)C(C)C)C(C)C (some centres unmarked) [G-KV21] (HELM PEPTIDE1{G.F.L.S.K.S.L.V.F.W.Q.E.E.[CS(=O)CC[C@H](N[*:1])C(=O)[*:2]].E.L.Y.R.Q.K.V}$$$$V2.0)	colocalization	significantly suppresses pathological RNV	inhibits tissue expression of TREM-1 and M-CSF	significantly improves survival	sensitizes the tumor to chemotherapy	self-inserts into the cell membrane and colocalizes with TREM-1	–	–
CC(C)C[C@H](NC(=O)[C@H](Cc1ccccc1)NC(=O)CN)C(=O)N[C@@H](CO)C(=O)N[C@@H](CCCCN)C(=O)N[C@@H](CO)C(=O)N[C@@H](CC(C)C)C(=O)N[C@H](C(=O)N[C@@H](Cc1ccccc1)C(=O)O)C(C)C [GF9] (H-GFLSKSLVF-OH)	–	–	–	–	–	–	at least 300 mg/kg	pass the blood-retinal barrier (BRB) and blood-brain barrier (BBB)

Reference: patent US20210322508A1, “PEPTIDES AND COMPOSITIONS FOR TARGETED TREATMENT AND IMAGING” (SIGNABLOK, INC., priority 2018, published 2021)
